Results on nine molecules are retold here after patent US10900063B2, “Measurement of Lp-PLA2 activity” (ASAHI KASEI PHARMA CORPORATION, priority 2016, dated 2021).

The test deals with T1, Lp-PLA2 (Homo sapiens, UniProt Q13093).
T1 construct: Individual serum No. 16, individual serum No. 78; from tissue; host or cells: serum and plasma (individual sera, pooled sera, heparin and citrated pooled plasma)
T1 sequence (Q13093 22-441): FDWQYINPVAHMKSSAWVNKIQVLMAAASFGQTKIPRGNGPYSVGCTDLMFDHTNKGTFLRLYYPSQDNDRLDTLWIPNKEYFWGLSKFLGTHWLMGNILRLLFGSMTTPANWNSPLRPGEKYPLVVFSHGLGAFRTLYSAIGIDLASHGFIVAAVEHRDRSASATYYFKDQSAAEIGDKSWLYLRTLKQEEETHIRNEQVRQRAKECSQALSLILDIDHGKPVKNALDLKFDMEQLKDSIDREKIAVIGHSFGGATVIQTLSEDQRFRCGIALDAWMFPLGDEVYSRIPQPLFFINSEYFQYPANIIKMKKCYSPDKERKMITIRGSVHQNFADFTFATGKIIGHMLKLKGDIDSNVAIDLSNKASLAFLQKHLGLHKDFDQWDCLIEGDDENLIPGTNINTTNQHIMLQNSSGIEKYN
Description: Lp-PLA2 activity measurement in serum/plasma with reagents of the invention (PAF substrate, lyso-PAF-PLD, choline oxidase, peroxidase colorimetry). The format is biochemical. The note with it: for values for absorbance change (sensitivity) compared with DAOS: Trinder reagent with 4-AA. The protocol: Unless otherwise specified, in these examples the Method 1 described under 1) below is used for calculating Lp-PLA2 activity values. In these examples, (nmol/min/mL) is sometimes expressed as (U/L).
This is calculated by the following formula based on the absorbance change per minute (ΔmAbs/min) as calculated from absorbance at the measuring points and the millimolar extinction coefficient (ε=36) of TODB at 546 nm.
4 μL of the sample was mixed with 160 μL of the R1 reagent, and incubated for 5 minutes at 37° C. (measuring points 1 to 16), after which 40 μL of the R2 reagent was added to initiate a reaction (measuring point 17). The absorbance of water (blank) at the same measuring points was subtracted from the absorbance of the sample about 3.6 to 4.5 minutes after the reaction was initiated by addition of the R2 reagent (measuring points 30 to 33) to calculate the absorbance change per minute (ΔmAbs/min), and the Lp-PLA2 activity value (nmol/min/mL) was calculated according to the previous formula.
[…] was mixed with 150 μL of the R1 reagent, and incubated for 5 minutes at 37° C. (measuring points 1 to 15), after which 100 μL of the R2 reagent was added to initiate a reaction (measuring point 16). The absorbance of water (blank) at the same measuring points was subtracted from the absorbance of the sample about 2 to 3 minutes after the reaction was initiated by addition of the R2 reagent (measuring points 23 to 26) to calculate the absorbance change per minute (ΔmAbs/min), and the Lp-PLA2 activity value (nmol/min/mL) was calculated according to the previous formula. The values for absorbance change per minute (sensitivity) (ΔmAbs/min) and the Lp-PLA2 activity values (nmol/min/mL) at each pH are shown in Tables 1 and 2.
5 μL of sample was mixed with 150 μL of the R1 reagent, and incubated for 5 minutes at 37° C. (measuring points 1 to 15), after which 100 μL of the R2 reagent was added to initiate a reaction (measuring point 16). The absorbance of water (blank) at the same measuring points was subtracted from the absorbance of the sample about 3.5 to 4.5 minutes after the reaction was initiated by addition of the R2 reagent (measuring points 27 to 30) to calculate the absorbance change per minute (ΔmAbs/min), and the Lp-PLA2 activity value (nmol/min/mL) was calculated according to the previous formula. The values for absorbance change per minute (sensitivity) (ΔmAbs/min) and Lp-PLA2 activity (nmol/min/mL) and the relative activity for each substrate given 100 as the Lp-PLA2 activity value for PAF(C16) are shown in Tables 19 to 24.
Each sample was mixed with 160 μL of the R1 reagent, and incubated for 5 minutes at 37° C., (measuring points 1 to 15), after which 40 μL of the R2 reagent was added to initiate the reaction (measuring point 16). The absorbance of water (blank) at the same measuring points was subtracted from the absorbance of the sample about 3.5 to 4.5 minutes after the reaction was initiated by addition of the R2 reagent (measuring points 27 to 30) to calculate the absorbance change per minute (ΔmAbs/min), and the Lp-PLA2 activity value (nmol/min/mL) was calculated according to the previous formula. […]
(measuring points 1 to 16), after which 100 μL of the R2 reagent was added to initiate a reaction (measuring point 17). The absorbance of water (blank) at the same measuring points was subtracted from the absorbance of the sample about 3.5 to 4.5 minutes after the reaction was initiated by addition of the R2 reagent (measuring points 29 to 32) to calculate the absorbance change per minute (ΔmAbs/min), and the Lp-PLA2 activity value (nmol/min/mL) was calculated according to the previous formula.

[1] abbreviates: Example 10, 0.03% Trinder reagent in R1 with 4-AA, sample Individual serum No16.
Where [2] appears, read: Example 10, 0.03% Trinder reagent in R1 with 4-AA, sample Individual serum No78.
The mark [3] stands for this setting: Example 10, 0.03% Trinder reagent in R1 with 4-AA, sample Pooled serum J042.
The mark [4] stands for this setting: Example 4, 50 mM buffer pH 7.5 in R1 and R2, sample Individual serum 16.
[5] abbreviates: Example 4, 50 mM buffer pH 7.5 in R1 and R2, sample Individual serum 78.

Regarding `CCN(CC(O)CS(=O)(=O)[O-])c1cc(OC)cc(OC)c1.[Na+]` (centres unmarked) [DAOS, N-ethyl-N-(2-hydroxy-3-sulfopropyl)-3,5-dimethoxyaniline sodium salt], the Lp-PLA2 activity value runs as follows: under setting [1], 33.7 nmol/min/mL; under setting [2], 14.5 nmol/min/mL; under setting [3], 14.1 nmol/min/mL. Besides, the “absorbance change per minute (sensitivity)” value (shortened to “absorbance change per minute”) runs as follows: under setting [1], 14.4 ΔmAbs/min; under setting [2], 6.2 ΔmAbs/min; under setting [3], 6.0 ΔmAbs/min.

As for `O=S(=O)(O)CCN1CCN(CCO)CC1` [HEPES, 2-[4-(2-Hydroxyethyl)-1-piperazinyl]ethanesulfonic acid], under setting [4], the Lp-PLA2 activity value turned out to be 76.4 nmol/min/mL and the “absorbance change per minute” value is 32.6 ΔmAbs/min. Under setting [5], the Lp-PLA2 activity value was 36.5 nmol/min/mL and the “absorbance change per minute” value was 15.6 ΔmAbs/min.

`O=S(=O)(O)CCCN1CCOCC1` [MOPS, 3-Morpholinopropanesulfonic acid]: the Lp-PLA2 activity value runs as follows: under setting [4], 81.3 nmol/min/mL; under setting [5], 39.4 nmol/min/mL. The “absorbance change per minute” value is listed as 34.7 ΔmAbs/min under setting [4] and 16.8 ΔmAbs/min under setting [5].

Consider `O=S(=O)(O)CCN1CCN(CCS(=O)(=O)O)CC1` [PIPES, Piperazine-1,4-bis(2-ethanesulfonic acid)], for which, under setting [4], the Lp-PLA2 activity value was determined as 89.5 nmol/min/mL and the “absorbance change per minute” value was 38.2 ΔmAbs/min. Under setting [5], the Lp-PLA2 activity value is on record as 43.1 nmol/min/mL and the “absorbance change per minute” value is 18.4 ΔmAbs/min.

Turning to `O=P(O)(O)O` [Pi-K, potassium phosphate], under setting [4], the Lp-PLA2 activity value amounted to 84.3 nmol/min/mL and the “absorbance change per minute” value is reported as 36.0 ΔmAbs/min. Under setting [5], the Lp-PLA2 activity value was found to be 37.5 nmol/min/mL and the “absorbance change per minute” value is given as 16.0 ΔmAbs/min.

As to `O=S(=O)(O)CCNC(CO)(CO)CO` [TES, N-tris(hydroxymethyl)methyl-2-aminoethanesulfonic acid], under setting [4], the Lp-PLA2 activity value is listed as 75.7 nmol/min/mL and the “absorbance change per minute” value was 32.3 ΔmAbs/min. Under setting [5], the Lp-PLA2 activity value is listed as 37.5 nmol/min/mL and the “absorbance change per minute” value is given as 16.0 ΔmAbs/min.

With `Cc1cccc(N(CCCCS(=O)(=O)[O-])CCCCS(=O)(=O)[O-])c1.[Na+].[Na+]` [TODB, N,N-bis(4-sulfobutyl)-3-methylaniline, disodium salt], the Lp-PLA2 activity value reads like this: under setting [1], 71.0 nmol/min/mL; under setting [2], 30.0 nmol/min/mL; under setting [3], 31.9 nmol/min/mL. Besides, the “absorbance change per minute” value is 30.3 ΔmAbs/min under setting [1], 12.8 ΔmAbs/min under setting [2] and 13.6 ΔmAbs/min under setting [3]. The “values for absorbance change (sensitivity) compared with DAOS” value (Example 10) is given as “about twice those obtained with DAOS”.

For the molecule `CCN(CC(O)CS(=O)(=O)[O-])c1cccc(C)c1.O.O.[Na+]` (centres unmarked) [TOOS, N-ethyl-N-(2-hydroxy-3-sulfopropyl)-3-methylaniline, sodium salt, dihydrate], the Lp-PLA2 activity value stood at 69.3 nmol/min/mL under setting [1], 28.1 nmol/min/mL under setting [2] and 30.9 nmol/min/mL under setting [3]. The “absorbance change per minute” value is listed as 29.6 ΔmAbs/min under setting [1], 12.0 ΔmAbs/min under setting [2] and 13.2 ΔmAbs/min under setting [3]. For the same molecule, the “values for absorbance change (sensitivity) compared with DAOS” value (Example 10) was “about twice those obtained with DAOS”.

Take `NC(CO)(CO)CO` [Tris, 2-Amino-2-hydroxymethyl-1,3-propanediol]: under setting [4], the Lp-PLA2 activity value is 99.1 nmol/min/mL and the “absorbance change per minute” value was 42.3 ΔmAbs/min. Moreover, under setting [5], the Lp-PLA2 activity value came out at 44.7 nmol/min/mL and the “absorbance change per minute” value is recorded as 19.1 ΔmAbs/min.
